The assay has as its target T1, Recombinant human renin (Homo sapiens, UniProt P00797).
T1 construct: isolate the active form (residues 67-406); made in house; host or cells: FreeStyle 293-F cells (transient expression of pcDNA3.1(+)/hREN)
T1 sequence (P00797 67-406): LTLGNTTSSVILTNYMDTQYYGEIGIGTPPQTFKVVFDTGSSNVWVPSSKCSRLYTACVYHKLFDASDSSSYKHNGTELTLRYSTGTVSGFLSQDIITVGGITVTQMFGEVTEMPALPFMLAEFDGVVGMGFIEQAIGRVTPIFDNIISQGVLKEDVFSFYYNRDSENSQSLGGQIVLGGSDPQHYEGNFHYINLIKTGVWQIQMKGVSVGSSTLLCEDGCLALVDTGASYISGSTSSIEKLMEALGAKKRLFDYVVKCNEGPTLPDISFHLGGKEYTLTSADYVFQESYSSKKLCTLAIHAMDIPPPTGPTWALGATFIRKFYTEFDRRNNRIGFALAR
Nature of the assay: In vitro enzymatic activity assay of renin inhibitors (fluorogenic peptide substrate). The settings on record: read-out: IC50 of Exemplified Compounds Against Renin. It counts as biochemical. The essentials:
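Recombinant human renin (3 nM final) pre-incubated 10 min at 37 °C with compounds in pH 7.4 Hepes/EDTA/DTT/0.1 mg/mL BSA/Brij35 buffer (optionally plus 2% BSA), 5% DMSO final; fluorogenic QXL520/HiLyteFluo488 peptide substrate added.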
As to `NC(=O)CCn1c([C@@H]2CCCN(C(=O)C[C@H](N)Cc3ccc(-c4ccc(N)nc4)cc3)C2)nc2ccccc21` [Compound 480, 3-(2-((R)-1-((R)-3-amino-4-(4-(6-aminopyridin-3-yl)phenyl)butanoyl)piperidin-3-yl)-1H-benzo[d]imidazol-1-yl)propanamide], the IC50 is 100 to 1000 nM.

For the molecule `NC(=O)CCn1c([C@@H]2CCCN(C(=O)C[C@H](N)Cc3ccc(-c4cnc(N)nc4)cc3)C2)nc2ccccc21` [Compound 481, 3-(2-((R)-1-((R)-3-amino-4-(4-(2-aminopyrimidin-5-yl)phenyl)butanoyl)piperidin-3-yl)-1H-benzo[d]imidazol-1-yl)propanamide], the half-inhibitory concentration (IC50) lay within 100 to 1000 nM.

`NC(=O)CCn1c([C@@H]2CCCN(C(=O)C[C@H](N)Cc3ccc(-c4ccc5c(c4)OC(F)(F)O5)cc3)C2)nc2ccccc21` [Compound 483, 3-(2-((R)-1-((R)-3-amino-4-(4-(2,2-difluorobenzo[d][1,3]dioxol-5-yl)phenyl)butanoyl)piperidin-3-yl)-1H-benzo[d]imidazol-1-yl)propanamide]: the IC50 lay within 100 to 1000 nM.

For the molecule `NC(=O)CCn1c([C@@H]2CCCN(C(=O)C[C@H](N)Cc3ccc(-c4ccc5c(c4)OCCO5)cc3)C2)nc2ccccc21` [Compound 484, 3-(2-((R)-1-((R)-3-amino-4-(4-(2,3-dihydrobenzo[b][1,4]dioxin-6-yl)phenyl)butanoyl)piperidin-3-yl)-1H-benzo[d]imidazol-1-yl)propanamide], the IC50 was greater than 1000 nM.

`NC(=O)CCn1c([C@@H]2CCCN(C(=O)C[C@H](N)Cc3ccc(-c4ccccc4)cc3)C2)nc2ccccc21` [Compound 485, 3-(2-((R)-1-((R)-3-amino-4-(biphenyl-4-yl)butanoyl)piperidin-3-yl)-1H-benzo[d]imidazol-1-yl)propanamide]: the IC50 was greater than 1000 nM.

As to `CC(=O)Nc1ccc(-c2ccc(C[C@@H](N)CC(=O)N3CCC[C@@H](c4nc5ccccc5n4CCC(N)=O)C3)cc2)cc1` [Compound 486, 3-(2-((R)-1-((R)-4-(4′-acetamidobiphenyl-4-yl)-3-aminobutanoyl)piperidin-3-yl)-1H-benzo[d]imidazol-1-yl)propanamide], the IC50 lay in the range of 100 to 1000 nM.

As for `COc1ccc(-c2ccc(C[C@@H](N)CC(=O)N3CCC[C@@H](c4nc5ccccc5n4CCC(N)=O)C3)cc2)cc1` [Compound 487, 3-(2-((R)-1-((R)-3-amino-4-(4′-methoxybiphenyl-4-yl)butanoyl)piperidin-3-yl)-1H-benzo[d]imidazol-1-yl)propanamide], the IC50 fell in the range of 100 to 1000 nM.

As for `NC(=O)CCn1c([C@@H]2CCCN(C(=O)C[C@H](N)Cc3ccc(-c4ccncc4)cc3)C2)nc2ccccc21` [Compound 488, 3-(2-((R)-1-((R)-3-amino-4-(4-(pyridin-4-yl)phenyl)butanoyl)piperidin-3-yl)-1H-benzo[d]imidazol-1-yl)propanamide], the IC50 lay in the range of 100 to 1000 nM.

Take `NC(=O)CCn1c([C@@H]2CCCN(C(=O)C[C@H](N)Cc3ccc(-c4ccc(Cl)cc4)cc3)C2)nc2ccccc21` [Compound 489, 3-(2-((R)-1-((R)-3-amino-4-(4′-chlorobiphenyl-4-yl)butanoyl)piperidin-3-yl)-1H-benzo[d]imidazol-1-yl)propanamide]: the half-maximal inhibitory concentration (IC50) is greater than 1000 nM.

For the molecule `COCCCn1c([C@@H]2CCCN(C(=O)C[C@H](N)Cc3ccc(-c4ccc5c(c4)CCO5)cc3)C2)nc2c(F)cccc21` [Compound 490, (R)-3-amino-4-(4-(2,3-dihydrobenzofuran-5-yl)phenyl)-1-((R)-3-(4-fluoro-1-(3-methoxypropyl)-1H-benzo[d]imidazol-2-yl)piperidin-1-yl)butan-1-one], the concentration for half-maximal inhibition (IC50) is less than 100 nM.

On to `COCCCn1c([C@@H]2CCCN(C(=O)C[C@H](N)Cc3ccc(-c4ccc(NC(C)=O)cc4)cc3)C2)nc2c(F)cccc21` [Compound 491, N-(4′-((R)-2-amino-4-((R)-3-(4-fluoro-1-(3-methoxypropyl)-1H-benzo[d]imidazol-2-yl)piperidin-1-yl)-4-oxobutyl)biphenyl-4-yl)acetamide], for which the IC50 was less than 100 nM.

As to `COCCCn1c([C@@H]2CCCN(C(=O)C[C@H](N)Cc3ccc(-c4ccc(OC)cc4)cc3)C2)nc2c(F)cccc21` [Compound 492, (R)-3-amino-1-((R)-3-(4-fluoro-1-(3-methoxypropyl)-1H-benzo[d]imidazol-2-yl)piperidin-1-yl)-4-(4′-methoxybiphenyl-4-yl)butan-1-one], the half-maximal inhibitory concentration (IC50) was less than 100 nM.

For the molecule `COCCCn1c([C@@H]2CCCN(C(=O)C[C@H](N)Cc3ccc(-c4ccc5c(c4)CCO5)cc3)C2)nc2c(C)cccc21` [Compound 493, (R)-3-amino-4-(4-(2,3-dihydrobenzofuran-5-yl)phenyl)-l-((R)-3-(1-(3-methoxypropyl)-4-methyl-1H-benzo[d]imidazol-2-yl)piperidin-1-yl)butan-1-one], the IC50 was less than 100 nM.

Turning to `COCCCn1c([C@@H]2CCCN(C(=O)C[C@H](N)Cc3ccc(-c4ccc5occc5c4)cc3)C2)nc2c(C)cccc21` [Compound 494, (R)-3-amino-4-(4-(benzofuran-5-yl)phenyl)-1-((R)-3-(1-(3-methoxypropyl)-4-methyl-1H-benzo[d]imidazol-2-yl)piperidin-1-yl)butan-1-one], the IC50 was less than 100 nM.

As for `COCCCn1c([C@@H]2CCCN(C(=O)C[C@H](N)Cc3ccc(-c4ccc5c(c4)CC(=O)N5)cc3)C2)nc2c(C)cccc21` [Compound 495, 5-(4-((R)-2-amino-4-((R)-3-(1-(3-methoxypropyl)-4-methyl-1H-benzo[d]imidazol-2-yl)piperidin-l-yl)-4-oxobutyl)phenyl)indolin-2-one], the IC50 was less than 100 nM.

`COCCCn1c([C@@H]2CCCN(C(=O)C[C@H](N)Cc3ccc(-c4ccc5c(c4)SCC(=O)N5)cc3)C2)nc2c(C)cccc21` [Compound 496, 7-(4-((R)-2-amino-4-((R)-3-(1-(3-methoxypropyl)-4-methyl-1H-benzo[d]imidazol-2-yl)piperidin-1-yl)-4-oxobutyl)phenyl)-2H-benzo[b][1,4]thiazin-3(4H)-one]: the concentration for half-maximal inhibition (IC50) was less than 100 nM.

As to `COCCCn1c([C@@H]2CCCN(C(=O)C[C@H](N)Cc3ccc(-c4ccc5c(c4)OCC(=O)N5)cc3)C2)nc2c(C)cccc21` [Compound 497, 7-(4-((R)-2-amino-4-((R)-3-(1-(3-rnethoxypropyl)-4-methyl-1H-benzo[d]imidazol-2-yl)piperidin-1-yl)-4-oxobutyl)phenyl)-2H-benzo[b][1,4]oxazin-3(4H)-one], the IC50 is less than 100 nM.

For `COCCCn1c([C@@H]2CCCN(C(=O)C[C@H](N)Cc3ccc(-c4ccc5c(c4)CC(=O)N5C)cc3)C2)nc2c(C)cccc21` [Compound 498, 5-(4-((R)-2-amino-4-((R)-3-(1-(3-methoxypropyl)-4-methyl-1H-benzo[d]imidazol-2-yl)piperidin-1-yl)-4-oxobutyl)phenyl)-1-methylindolin-2-one], the IC50 was less than 100 nM.

In the case of `COCCCn1c([C@@H]2CCCN(C(=O)C[C@H](N)Cc3ccc(-c4ccc5[nH]ncc5c4)cc3)C2)nc2c(C)cccc21` [Compound 499, (R)-4-(4-(1H-indazol-5-yl)phenyl)-3-amino-1-((R)-3-(1-(3-methoxypropyl)-4-methyl-1H-benzo[d]imidazol-2-yl)piperidin-1-yl)butan-1-one], the half-inhibitory concentration (IC50) is less than 100 nM.

On to `COCCCn1c([C@@H]2CCCN(C(=O)C[C@H](N)Cc3ccc(-c4ccc5[nH]nc(N)c5c4)cc3)C2)nc2c(C)cccc21` [Compound 500, (R)-3-amino-4-(4-(3-amino-1H-indazol-5-yl)phenyl)-1-((R)-3-(1-(3-methoxypropyl)-4-methyl-1H-benzo[d]imidazol-2-yl)piperidin-1-yl)butan-1-one], for which the 50% inhibitory concentration (IC50) is less than 100 nM.

As to `CNC(=O)CCn1c([C@@H]2CCCN(C(=O)C[C@H](N)Cc3ccc(-c4ccc5c(c4)CCO5)cc3)C2)nc2c(C)cccc21` [Compound 501, 3-(2-((R)-1-((R)-3-amino-4-(4-(2,3-dihydrobenzofuran-5-yl)phenyl)butanoyl)piperidin-3-yl)-4-methyl-1H-benzo[d]imidazol-1-yl)-N-methylpropanamide], the IC50 was in the range of 100 to 1000 nM.

Regarding `COCCCn1c([C@@H]2CCCN(C(=O)C[C@H](N)Cc3ccc4ccccc4c3)C2)nc2ccc(Cl)nc21` [Compound 502, (3R)-3-amino-1-(3-(5-chloro-3-(3-methoxypropyl)-3H-imidazo[4,5-b]pyridin-2-yl)piperidin-1-yl)-4-(naphthalen-2-yl)butan-1-one], the IC50 is greater than 1000 nM.

Take `COCCCn1c([C@@H]2CCCN(C(=O)C[C@H](N)Cc3ccc4ccccc4c3)C2)nc2ccc(OC)nc21` [Compound 503, (3R)-3-amino-1-(3-(5-methoxy-3-(3-methoxypropyl)-3H-imidazo[4,5-b]pyridin-2-yl)piperidin-1-yl)-4-(naphthalen-2-yl)butan-1-one]: the IC50 fell in the range of 100 to 1000 nM.

For the molecule `COCCCn1c([C@@H]2CCCN(C(=O)C[C@H](N)Cc3ccc(-c4ccc(O)nc4)cc3)C2)nc2c(C)ccnc21` [Compound 504, (R)-3-amino-4-(4-(6-hydroxypyridin-3-yl)phenyl)-1-((R)-3-(3-(3-methoxypropyl)-7-methyl-3H-imidazo[4,5-b]pyridin-2-yl)piperidin-1-yl)butan-1-one], the IC50 is 100 to 1000 nM.

Turning to `COCCCn1c([C@@H]2CCCN(C(=O)C[C@H](N)Cc3ccc(-c4ccccc4)cc3)C2)nc2c(C)ccnc21` [Compound 505, (R)-3-amino-4-(biphenyl-4-yl)-1-((R)-3-(3-(3-methoxypropyl)-7-methyl-3H-imidazo[4,5-b]pyridin-2-yl)piperidin-1-yl)butan-1-one], the IC50 is less than 100 nM.

For orientation: IC50 means the concentration needed to halve the response being measured.

The record behind these values is US8138168B1 (Takeda Pharmaceutical Company Limited, priority 2007, dated 2012).
